Experimental data from ChEMBL document CHEMBL1137380, “Conformationally restricted dipeptide amides as potent and selective neuronal nitric oxide synthase inhibitors” (J Med Chem, 2006).

Experiments:
[1] = target: T1, Nitric oxide synthase, inducible (Mus musculus, UniProt P29477); experiment: Inhibition of murine macrophage iNOS
T1 sequence (P29477 whole entry): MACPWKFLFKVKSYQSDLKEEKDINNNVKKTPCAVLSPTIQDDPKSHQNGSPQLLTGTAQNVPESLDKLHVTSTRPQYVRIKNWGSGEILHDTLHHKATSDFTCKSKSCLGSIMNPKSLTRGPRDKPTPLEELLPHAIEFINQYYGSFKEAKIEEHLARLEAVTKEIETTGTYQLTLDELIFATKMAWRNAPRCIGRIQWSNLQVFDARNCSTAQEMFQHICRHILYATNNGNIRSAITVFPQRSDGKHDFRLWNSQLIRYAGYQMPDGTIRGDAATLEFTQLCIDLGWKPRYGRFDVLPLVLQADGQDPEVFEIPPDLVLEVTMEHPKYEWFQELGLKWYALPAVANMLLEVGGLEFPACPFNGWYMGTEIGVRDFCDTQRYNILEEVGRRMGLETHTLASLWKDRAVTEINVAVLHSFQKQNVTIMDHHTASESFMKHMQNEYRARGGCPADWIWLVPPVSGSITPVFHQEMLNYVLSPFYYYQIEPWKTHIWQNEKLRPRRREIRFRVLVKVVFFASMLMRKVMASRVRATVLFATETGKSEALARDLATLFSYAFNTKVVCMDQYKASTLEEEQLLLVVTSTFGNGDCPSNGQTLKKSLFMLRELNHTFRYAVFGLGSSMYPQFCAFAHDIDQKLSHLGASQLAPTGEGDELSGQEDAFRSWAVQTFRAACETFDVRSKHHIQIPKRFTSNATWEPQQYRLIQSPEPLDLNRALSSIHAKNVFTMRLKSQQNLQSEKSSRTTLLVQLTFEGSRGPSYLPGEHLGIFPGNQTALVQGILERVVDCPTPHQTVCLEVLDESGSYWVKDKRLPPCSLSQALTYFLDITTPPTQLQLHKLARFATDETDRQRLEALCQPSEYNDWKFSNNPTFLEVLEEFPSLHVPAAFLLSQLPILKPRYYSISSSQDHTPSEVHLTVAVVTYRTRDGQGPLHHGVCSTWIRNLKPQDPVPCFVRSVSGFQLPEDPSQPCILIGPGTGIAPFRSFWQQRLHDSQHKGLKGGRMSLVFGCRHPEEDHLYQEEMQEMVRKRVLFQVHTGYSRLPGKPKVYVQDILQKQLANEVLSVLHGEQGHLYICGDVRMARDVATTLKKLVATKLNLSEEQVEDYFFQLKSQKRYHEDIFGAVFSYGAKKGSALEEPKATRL

Nitric oxide synthase 3 = target: T2, Nitric oxide synthase 3 (Bos taurus, UniProt P29473); experiment: Inhibition of bovine eNOS
T2 sequence (P29473 whole entry): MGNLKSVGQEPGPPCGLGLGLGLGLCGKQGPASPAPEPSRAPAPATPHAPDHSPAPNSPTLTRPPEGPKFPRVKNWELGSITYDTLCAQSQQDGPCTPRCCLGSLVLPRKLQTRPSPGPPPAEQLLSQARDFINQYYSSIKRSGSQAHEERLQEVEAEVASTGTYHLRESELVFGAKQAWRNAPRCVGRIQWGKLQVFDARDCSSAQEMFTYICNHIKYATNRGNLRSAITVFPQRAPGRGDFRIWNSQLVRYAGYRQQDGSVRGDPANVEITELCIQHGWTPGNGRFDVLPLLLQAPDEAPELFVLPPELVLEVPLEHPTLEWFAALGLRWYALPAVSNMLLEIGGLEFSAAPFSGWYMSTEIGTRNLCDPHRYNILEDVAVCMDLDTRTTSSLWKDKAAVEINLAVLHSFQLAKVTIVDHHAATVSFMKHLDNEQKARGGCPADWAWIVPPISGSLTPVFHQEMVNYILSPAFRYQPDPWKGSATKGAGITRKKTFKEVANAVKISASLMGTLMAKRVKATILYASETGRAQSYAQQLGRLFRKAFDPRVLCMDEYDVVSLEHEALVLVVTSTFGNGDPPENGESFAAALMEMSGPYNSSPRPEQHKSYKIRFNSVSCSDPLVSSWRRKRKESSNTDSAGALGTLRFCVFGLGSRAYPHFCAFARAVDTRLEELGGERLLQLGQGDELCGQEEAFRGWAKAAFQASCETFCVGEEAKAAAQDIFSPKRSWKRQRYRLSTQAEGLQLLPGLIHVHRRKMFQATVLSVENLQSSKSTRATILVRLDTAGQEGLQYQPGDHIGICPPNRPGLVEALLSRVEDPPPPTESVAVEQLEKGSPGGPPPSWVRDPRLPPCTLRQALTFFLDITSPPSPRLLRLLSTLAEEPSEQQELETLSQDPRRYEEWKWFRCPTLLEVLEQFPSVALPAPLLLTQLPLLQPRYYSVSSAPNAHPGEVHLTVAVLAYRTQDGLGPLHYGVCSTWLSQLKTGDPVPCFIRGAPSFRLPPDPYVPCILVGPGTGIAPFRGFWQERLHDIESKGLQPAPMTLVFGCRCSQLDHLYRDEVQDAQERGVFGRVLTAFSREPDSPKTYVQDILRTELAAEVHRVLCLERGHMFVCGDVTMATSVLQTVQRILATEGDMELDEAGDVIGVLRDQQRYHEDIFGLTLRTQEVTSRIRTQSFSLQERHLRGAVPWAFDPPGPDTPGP

[2] = Selectivity for rat nNOS over bovine eNOS
[3] = Selectivity for rat nNOS over murine iNOS
Nitric oxide synthase 1 = Nitric oxide synthase 1 (Rattus norvegicus, UniProt P29476); experiment: Inhibition of rat nNOS
Sequence of Nitric oxide synthase 1 (P29476 whole entry): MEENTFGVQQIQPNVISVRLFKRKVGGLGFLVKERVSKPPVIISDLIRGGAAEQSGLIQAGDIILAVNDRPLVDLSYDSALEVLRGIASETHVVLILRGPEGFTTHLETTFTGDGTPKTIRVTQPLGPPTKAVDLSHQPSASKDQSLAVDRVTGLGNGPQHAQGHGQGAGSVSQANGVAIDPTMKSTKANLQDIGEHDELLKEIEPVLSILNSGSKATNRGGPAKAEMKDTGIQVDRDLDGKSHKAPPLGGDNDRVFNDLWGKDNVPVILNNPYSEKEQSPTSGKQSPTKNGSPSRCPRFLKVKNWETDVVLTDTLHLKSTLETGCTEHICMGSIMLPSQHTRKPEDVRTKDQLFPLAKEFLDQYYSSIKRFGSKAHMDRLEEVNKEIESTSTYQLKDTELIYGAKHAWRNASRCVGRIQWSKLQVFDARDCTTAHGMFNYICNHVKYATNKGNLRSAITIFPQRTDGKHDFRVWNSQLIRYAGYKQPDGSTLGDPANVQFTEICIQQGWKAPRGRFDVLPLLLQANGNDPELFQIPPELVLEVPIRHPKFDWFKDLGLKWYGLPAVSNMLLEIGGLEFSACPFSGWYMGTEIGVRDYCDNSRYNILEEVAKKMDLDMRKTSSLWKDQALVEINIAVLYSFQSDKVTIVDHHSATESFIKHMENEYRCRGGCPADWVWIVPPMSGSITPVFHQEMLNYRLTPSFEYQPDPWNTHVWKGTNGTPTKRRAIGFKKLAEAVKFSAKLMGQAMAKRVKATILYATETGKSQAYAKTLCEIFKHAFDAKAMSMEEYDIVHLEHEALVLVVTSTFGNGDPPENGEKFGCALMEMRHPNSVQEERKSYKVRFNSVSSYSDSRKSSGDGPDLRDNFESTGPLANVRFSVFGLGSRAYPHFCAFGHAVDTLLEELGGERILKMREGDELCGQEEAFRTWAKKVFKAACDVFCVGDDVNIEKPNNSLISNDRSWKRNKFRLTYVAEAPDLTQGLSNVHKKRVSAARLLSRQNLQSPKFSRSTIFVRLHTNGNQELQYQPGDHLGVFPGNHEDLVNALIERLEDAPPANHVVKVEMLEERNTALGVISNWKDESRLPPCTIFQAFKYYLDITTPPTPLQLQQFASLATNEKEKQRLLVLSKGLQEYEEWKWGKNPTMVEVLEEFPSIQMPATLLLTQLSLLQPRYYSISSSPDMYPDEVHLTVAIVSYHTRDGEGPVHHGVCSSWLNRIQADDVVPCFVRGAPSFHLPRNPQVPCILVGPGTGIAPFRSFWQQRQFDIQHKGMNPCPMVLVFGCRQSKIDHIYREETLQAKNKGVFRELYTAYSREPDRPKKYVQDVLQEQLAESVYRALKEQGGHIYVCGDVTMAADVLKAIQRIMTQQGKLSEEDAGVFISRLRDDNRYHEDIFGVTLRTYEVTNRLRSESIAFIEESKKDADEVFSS

Question: For NC(=O)[C@H]1NCC[C@@H]1NC(=O)[C@@H](N)CCC/N=C(\N)N[N+](=O)[O-], which IC50 [1] is on record?
Answer: 12.7 µM

Question: What about the Ki [1] of the same compound?
Answer: 5.76 µM

Question: What about the IC50 (Nitric oxide synthase 3) of the same compound?
Answer: 1380 µM

Question: What about the Ki (Nitric oxide synthase 3) of the same compound?
Answer: 200 µM

Question: Which IC50 [1] does the source give for CN1C[C@H](NC(=O)[C@@H](N)CCC/N=C(\N)N[N+](=O)[O-])C[C@H]1C(N)=O here?
Answer: 83.5 µM

Question: What about the Ki [1] of the same compound?
Answer: 37.9 µM

Question: What about the Ratio Ki [2] of the same compound?
Answer: 29

Question: What about the Ratio Ki [3] of the same compound?
Answer: 4.5

Question: And the IC50 (Nitric oxide synthase 1)?
Answer: 73.5 µM

Question: What about the Ki (Nitric oxide synthase 1) of the same compound?
Answer: 8.46 µM

Question: And the IC50 (Nitric oxide synthase 3)?
Answer: 1690 µM

Question: And the Ki (Nitric oxide synthase 3)?
Answer: 246 µM

Question: Which IC50 [1] does the source give for NC(=O)[C@@H]1C[C@@H](NC(=O)[C@@H](N)CCC/N=C(\N)N[N+](=O)[O-])CN1Cc1ccccc1 here?
Answer: 87.5 µM

Question: And the Ki [1]?
Answer: 39.7 µM

Question: What about the Ratio Ki [2] of the same compound?
Answer: 485

Question: What about the Ratio Ki [3] of the same compound?
Answer: 121

Question: And the IC50 (Nitric oxide synthase 1)?
Answer: 2.85 µM

Question: And the Ki (Nitric oxide synthase 1)?
Answer: 0.328 µM

Question: What about the IC50 (Nitric oxide synthase 3) of the same compound?
Answer: 1100 µM

Question: What about the Ki (Nitric oxide synthase 3) of the same compound?
Answer: 159 µM
